Common to all, as to settings: route intraperitoneal
Assay [1] deals with Mus musculus. Description: Hind limb tonic extension in PTZ-induced lethal convulsions in mice at 5 mg/kg, ip. The format is functional, Hindlimb.
Assay [2] has as its system Mus musculus. Kind of assay: Mortality in PTZ-induced lethal convulsions in mice at 5 mg/kg, ip. The assay is classed as functional.
Assay [3] relates to Mus musculus. Description: Seizure latency in PTZ-induced lethal convulsions in mice at 5 mg/kg, ip. The assay is classed as functional.
In assay [4] the test system is Mus musculus. Description: Seizure latency in PTZ-induced lethal convulsions in mice at 150 mg/kg, ip. The format is functional.
Assay [5] has as its system Mus musculus. Kind of assay: Mortality in PTZ-induced lethal convulsions in mice at 150 mg/kg, ip. The format is functional.
Assay [6] concerns Mus musculus. Kind of assay: Hind limb tonic extension in PTZ-induced lethal convulsions in mice at 150 mg/kg, ip. The assay is classed as functional, Hindlimb.

For `O/N=C1\c2ccccc2OCC1[n+]1cnc[nH]1` (configuration not stated), the Activity came out at 100% in assay [1], 100% in assay [2] and 7.17 min in assay [3].
Turning to `O=C1c2ccc(Cl)cc2OCC1n1cnnc1` (configuration not stated), the Activity in assay [1] was 100%; in assay [2], 83%; in assay [3], 4.67 min.
The like results for `O=C1c2ccc(Cl)cc2OCC1n1ccnc1` (configuration not stated) were, in that order, 0%, 0% and 23.5 min.
Turning to `O=C1c2ccccc2OCC1n1cnnc1` (configuration not stated), the values for the Activity in assay [1], in assay [2] and in assay [3] were 100%, 100% and 2.83 min, respectively.
Consider `O=C1c2ccccc2OCC1n1cncn1` (configuration not stated), for which the Activity in assay [1] amounted to 17%; in assay [2] it was 17%; in assay [3] it was 22 min.
Turning to `O=C1c2ccc(Cl)cc2OCC1n1cncn1` (configuration not stated), the Activity was 100% in assay [1], 100% in assay [2] and 2.5 min in assay [3].
Consider `O/N=C1/c2ccccc2OCC1n1cncn1` (configuration not stated), for which the Activity in assay [1] worked out at 100%; in assay [2], 100%; in assay [3] it was 4 min.
Turning to `O=c1c(-n2cnnc2)coc2ccccc12`, the Activity in assay [1] came out at 100%; in assay [2], 100%; in assay [3], 10 min.
On to `O/N=C1\c2ccccc2OCC1n1ccnc1` (configuration not stated), for which the Activity in assay [1] worked out at 100%; in assay [2], 100%; in assay [3], 5.5 min.
With `O/N=C1/c2ccc(Cl)cc2OCC1n1cnnc1` (configuration not stated), the Activity in assay [1] was found to be 100%; in assay [2], 100%; in assay [3], 2.5 min.
Turning to `Cc1oc2ccccc2c(=O)c1-n1cnnc1`, the Activity in assay [1] is reported as 100%; in assay [2], 100%; in assay [3], 5 min.
In the case of `O=C1c2ccccc2OCC1n1ccnc1` (configuration not stated), the Activity in assay [1] stood at 83%; in assay [2] it was 83%; in assay [3], 2 min.
For the compound `O/N=C1/c2ccccc2OCC1n1ccnc1` (configuration not stated), the Activity is recorded as 83% in assay [1], 0% in assay [2] and 7.8 min in assay [3].
The like results for `O/N=C1/c2ccc(Cl)cc2OCC1n1ccnc1` (configuration not stated) were, in that order, 100%, 100% and 5.83 min.
The like results for `C[C@@H]1Oc2ccccc2C(=O)[C@H]1n1ccnc1` (relative stereo) were, in that order, 100%, 67% and 17 min.
The like results for `C[C@@H]1Oc2cc(Cl)ccc2C(=O)[C@H]1n1ccnc1` (relative stereo) were, in that order, 67%, 67% and 18.6 min.
`C[C@H]1Oc2cc(Cl)ccc2C(=O)[C@@H]1n1cnnc1` (relative stereo): the figures for the Activity in assay [1], in assay [2] and in assay [3] were 83%, 83% and 10 min, respectively.
Consider `C[C@H]1Oc2ccccc2C(=O)[C@@H]1n1cnnc1` (relative stereo), for which the Activity in assay [1] is reported as 100%; in assay [2], 100%; in assay [3] it was 7.17 min.
`CCCC(CCC)C(=O)[O-].[Na+]` [VALPROATE SODIUM]: the Activity in assay [4] came out at 15.65 min; in assay [5] it was 0%; in assay [6], 0%.
